Results published in PMC12040169 (PLOS Biology, 2025).

Assay: in vitro
Settings: human, hela cells, % viability
For `O=[N+]([O-])c1ccccc1S(=O)(=O)N1CCN(c2ccccc2)CC1` [CBK261755], the viability at 28.5 h, 10 µM was 85.8%.
`OCCN1CCN(Cc2cc(Br)cs2)CC1` [CBK261758] gave a viability at 28.5 h, 10 µM of 96%.
Compound `O=S(=O)(NC(c1ccccc1)c1ccccc1)c1ccc(Cl)cc1` [CBK261759] has a viability at 28.5 h, 10 µM of 104%.
With `NNC(=O)c1cc(-c2ccc(-c3ccccc3)cc2)nc2ccc(Br)cc12` [CBK261760] the viability at 28.5 h, 10 µM was 104%.
`O=C(Nc1ccccc1C(=O)O)c1ccc(Cl)c(S(=O)(=O)N2CCCCC2)c1` [CBK261763] gave a viability at 28.5 h, 10 µM of 113%.
In the case of `CC1CCCC(C)N1CC(O)COc1ccc(/N=C/c2ccccc2)cc1` (centres unmarked) [CBK261764], the viability at 28.5 h, 10 µM is reported as 78.5%.
`Cc1cc(C)n2nc(C(=O)N/N=C/c3ccc(O)cc3)nc2n1` [CBK261765] showed a viability at 28.5 h, 10 µM of 85.4%.
`O=C(CCC(=O)Nc1ccc(F)cc1)N/N=C/c1ccc(O)cc1O` [CBK261766] gave a viability at 28.5 h, 10 µM of 112%.
Compound `O=S(=O)(NCCCn1ccnc1)c1cc(Cl)ccc1Cl` [CBK261767] has a viability at 28.5 h, 10 µM of 105%.
Work on `O=C(O)c1cc(S(=O)(=O)NCc2ccccc2)ccc1Br` [CBK261768] yielded a viability at 28.5 h, 10 µM of 96.9%.
In the case of `Cc1ccc(S(=O)(=O)c2ccc(C)c(S(=O)(=O)N3CCCC3)c2)cc1S(=O)(=O)N1CCCC1` [CBK261772], the viability at 28.5 h, 10 µM is reported as 78.9%.
`CC1CCN(S(=O)(=O)c2ccc(Oc3ccc([N+](=O)[O-])cc3)cc2)CC1` [CBK261774] showed a viability at 28.5 h, 10 µM of 98%.
For `O=C(N/N=C/c1ccc([N+](=O)[O-])cc1)c1ccccc1Cl` [CBK261775], the viability at 28.5 h, 10 µM was 88.7%.
Compound `O=C(O)c1cc(-c2cccc(O)c2)nc2ccc(Br)cc12` [CBK261777] has a viability at 28.5 h, 10 µM of 97.9%.
Work on `O=C(c1ccc([N+](=O)[O-])cc1Cl)N1CCN(Cc2ccccc2)CC1` [CBK261778] yielded a viability at 28.5 h, 10 µM of 103%.
Compound `Nc1ccccc1CC(c1c[nH]c2ccccc12)c1c[nH]c2ccccc12` [CBK261780] has a viability at 28.5 h, 10 µM of 103%.
For `CCOc1ccccc1OCC(=O)NN` [CBK261782], the viability at 28.5 h, 10 µM was 93.2%.
In the case of `CCN(CC)CCCCSc1ccc(O)cc1` [CBK261785C], the viability at 28.5 h, 10 µM is reported as 95.7%.
In the case of `O=C(Nc1cccc(-c2nc3ccccc3s2)c1)c1ccc(S(=O)(=O)N2CCCC2)cc1` [CBK261787], the viability at 28.5 h, 10 µM is reported as 96.7%.
In the case of `O=C(O)/C=C/C(=O)NNC(=O)c1ccccc1O` [CBK261789], the viability at 28.5 h, 10 µM is reported as 97.4%.
With `CCCOc1ccc(-c2cn(CC(=O)NN)cn2)cc1` [CBK261790] the viability at 28.5 h, 10 µM was 106%.
With `Cc1ccc(C(=O)NNC(=O)c2ccc([N+](=O)[O-])cc2)cc1` [CBK261793] the viability at 28.5 h, 10 µM was 89.5%.
`c1ccc(Oc2cccc(C(N3CCOCC3)N3CCOCC3)c2)cc1` [CBK261798] showed a viability at 28.5 h, 10 µM of 104%.
In the case of `Cc1ccc(OCC(=O)NNC(=O)c2ccco2)cc1` [CBK261800], the viability at 28.5 h, 10 µM is reported as 96.1%.
In the case of `Cc1cc(/C=N\NC(=O)c2cc3ccccc3cc2O)c(C)n1-c1ccccc1` [CBK261801], the viability at 28.5 h, 10 µM is reported as 84.6%.
`c1ccc(Nc2ccccc2Nc2ccccn2)nc1` [CBK261806] gave a viability at 28.5 h, 10 µM of 93.5%.
In the case of `O=C(Nc1sc2c(c1CN1CCCCCC1)CCCC2)c1ccccc1` [CBK261811], the viability at 28.5 h, 10 µM is reported as 91%.
For `C/C(=N\N)c1ccc2[nH]c3c(c2c1)CCC/C3=N\N` [CBK261812], the viability at 28.5 h, 10 µM was 81.2%.
Compound `Nc1nonc1NC(=O)N/N=C/c1ccc(C(F)(F)F)cc1` [CBK261813] has a viability at 28.5 h, 10 µM of 99.8%.
Work on `CC(Sc1nc2c(N)ncnc2[nH]1)C(=O)O` (centres unmarked) [CBK261814] yielded a viability at 28.5 h, 10 µM of 106%.
With `O=C(N/N=C/c1c(F)cccc1Cl)c1ccccc1O` [CBK261815] the viability at 28.5 h, 10 µM was 113%.
With `C(=N\N=C(/c1ccccc1)C12CN3CN(CN(C3)C1)C2)/c1ccc2c(c1)OCO2` [CBK261816] the viability at 28.5 h, 10 µM was 102%.
`O=C(N/N=C/c1ccc([N+](=O)[O-])cc1)C(=O)Nc1cccc(Cl)c1` [CBK261821] gave a viability at 28.5 h, 10 µM of 95.8%.
`CCOc1ccc(NC(=O)C(=O)NC2CCCCC2)cc1` [CBK261822] gave a viability at 28.5 h, 10 µM of 105%.
`CC1(C)CC(=O)C2=C(C1)c1c(ccc3ccccc13)NC2c1ccc(-c2ccc(O)c(C(=O)O)c2)o1` (centres unmarked) [CBK261823] showed a viability at 28.5 h, 10 µM of 108%.
`CC1(C(=O)O)CCC(C(=O)O)C1(C)C` (centres unmarked) [CBK261830] showed a viability at 28.5 h, 10 µM of 96.1%.
Compound `O=[N+]([O-])c1ccc(O)c(/C=N/C(CO)(CO)CO)c1` [CBK261835] has a viability at 28.5 h, 10 µM of 89.3%.
Compound `O=C(O)CC1c2ccccc2Oc2ccccc21` [CBK261836] has a viability at 28.5 h, 10 µM of 92%.
In the case of `CC1=NN(c2ccccc2)C(=O)/C1=C(/C)NNC(=O)c1ccccn1` [CBK261837], the viability at 28.5 h, 10 µM is reported as 91.7%.

Same assay, conditions: human, hela cells, % viability, bulk resorufin, single well
Work on `O=C(NCCCn1ccnc1)c1cc([N+](=O)[O-])cc([N+](=O)[O-])c1` [CBK261773] yielded a viability at 28.5 h, 10 µM of 87.5%.
With `O=C1NC(=S)NC(=O)C1=Cc1ccc(-c2ccc([N+](=O)[O-])cc2Cl)o1` [CBK261820] the viability at 28.5 h, 10 µM was 89.2%.
`O=C1NC(=S)N(c2ccc(F)cc2)C(=O)/C1=C\NC1CCN(Cc2ccccc2)CC1` [CBK261825] gave a viability at 28.5 h, 10 µM of 93%.
Compound `CN(C)CCN/C=C1/C(=O)NC(=S)N(c2ccccc2Cl)C1=O` [CBK261826] has a viability at 28.5 h, 10 µM of 86.4%.
For `Cc1cccc(N2C(=O)NC(=O)/C(=C/NC3CCN(Cc4ccccc4)CC3)C2=O)c1` [CBK261827], the viability at 28.5 h, 10 µM was 92.2%.
